PMC11456916, “A screen for cell envelope stress uncovers an inhibitor of prolipoprotein diacylglyceryl transferase, Lgt, in Escherichiacoli” (iScience, 2024)

Legend:
[1] = tested on: E. coli ΔtolC-pore harboring CRISPRi plasmids targeting lgt; assay: CRISPRi lgt knockdown MIC (low-copy enhancement); type: cell-based; details: two gRNAs targeting lgt, 100 ng/mL aTc
Text: We next turned to genetic approaches to confirm the mechanism of action of MAC-0452936. […] To that end, we screened the E. coli CRISPRi collection in the ΔtolC-pore genetic background with a sub-inhibitory concentration of MAC-0452936 and measured the fitness of all 356 CRISPRi mutants (Figure 4C and Data S4). […] Depletion of Lgt by CRISPRi provided supporting evidence that MAC-0452936 targeted Lgt in E. coli; however, we sought to confirm this observation using a parallel genetic approach. We hypothesized that MAC-0452936 potency would also be affected by high-copy expression of lgt. To that end, we introduced either an arabinose inducible copy of lgt supplied on the pCHAP9231 plasmid[48] or the pBAD19s plasmid as a control into E. coli ΔtolC-pore and tested the potency of MAC-0452936 (Figure 4E). Induction of lgt expression with arabinose suppressed the activity of MAC-0452936 by about 8-fold. […] To test this hypothesis, we constructed E. coli ΔlgtΔtolC-pore with pCHAP9231[48] so that lgt expression was driven solely by arabinose from the plasmid. […] To test this observation with MAC-0452936, we introduced an lpp deletion into our screening strain E. coli ΔtolC-pore and assessed the activity of our Lgt inhibitor in this mutant background. […]

[2] = tested on: 356 CRISPRi constructs in E. coli ΔtolC-pore; assay: CRISPRi collection fitness screen with sub-inhibitory compound; type: cell-based; details: for Growth, mean colony biomass (n=4): +250 ng/ml Vancomycin
Text: To that end, we screened the E. coli CRISPRi collection in the ΔtolC-pore genetic background with a sub-inhibitory concentration of MAC-0452936 and measured the fitness of all 356 CRISPRi mutants (Figure 4C and Data S4). […] To that end, we introduced either an arabinose inducible copy of lgt supplied on the pCHAP9231 plasmid[48] or the pBAD19s plasmid as a control into E. coli ΔtolC-pore and tested the potency of MAC-0452936 (Figure 4E). […] To test this hypothesis, we constructed E. coli ΔlgtΔtolC-pore with pCHAP9231[48] so that lgt expression was driven solely by arabinose from the plasmid.
For screens of the CRISPRi collection with MAC-0452936, the mobile CRISPRi collection was first conjugated into E. coli ΔtolC-pore as previously described.[30] The CRISPRi collection was then arrayed on solid agar at 1536 density using the Singer-ROTOR, such that each CRISPRi strain is arrayed in technical quadruplicate. […] The screens were conducted without CRISPRi induction, using just the 5–10% basal knockdown from the pFD152 CRISPRi plasmid. Following overnight growth, plates were imaged using high-resolution scanners (Epson Perfection v750), and colony biomass for each mutant was determined.

`CN[C@H](CC(C)C)C(=O)N[C@H]1C(=O)N[C@@H](CC(N)=O)C(=O)N[C@H]2C(=O)N[C@H]3C(=O)N[C@H](C(=O)N[C@H](C(=O)O)c4cc(O)cc(O)c4-c4cc3ccc4O)[C@H](O)c3ccc(c(Cl)c3)Oc3cc2cc(c3O[C@@H]2O[C@H](CO)[C@@H](O)[C@H](O)[C@H]2O[C@H]2C[C@](C)(N)[C@H](O)[C@H](C)O2)Oc2ccc(cc2Cl)[C@H]1O` [Vancomycin] was tested, and the “sensitization upon depletion of Lgt with CRISPRi constructs” value [1] was “not to either of the negative control antibiotics”, the “Growth, mean colony biomass (n=4)” value ([2]; gRNA asnS) was 0.957 and the “Growth represented as mean colony biomass” value ([2]; gRNA cdsA, 1μg/ml MAC0452936, 6ng/ml LolCDE-in-1, 250 ng/ml Vancomycin, 7 ng/ml CHIR090, n=4) was 1.2659. The “Growth, mean colony biomass (n=4)” value ([2]; gRNA csrA) was 0.9477, the “Growth, mean colony biomass (n=4)” value ([2]; gRNA dnaC) was 1.003 and the “Growth, mean colony biomass (n=4)” value ([2]; gRNA dut) was 1.0326. The “Growth, mean colony biomass (n=4)” value ([2]; gRNA folA) was 1.027, the “Growth, mean colony biomass (n=4)” value ([2]; gRNA folC) was 1.033 and the “Growth, mean colony biomass (n=4)” value ([2]; gRNA ftsA) was 0.9398. For the same molecule, the “Growth, mean colony biomass (n=4)” value ([2]; gRNA glmS) was 1.002, the “Growth, mean colony biomass (n=4)” value ([2]; gRNA hemD) was 1.042 and the “Growth, mean colony biomass (n=4)” value ([2]; gRNA lexA) was 1.232. For the same molecule, the “Growth, mean colony biomass (n=4)” value ([2]; gRNA mnmA) was 1.044, the “Growth, mean colony biomass (n=4)” value ([2]; gRNA msbA) was 1.015 and the “Growth, mean colony biomass (n=4)” value ([2]; gRNA mukF) was 1.002. For the same molecule, the “Growth, mean colony biomass (n=4)” value ([2]; gRNA nadK) was 0.9893, the “Growth, mean colony biomass (n=4)” value ([2]; gRNA prmC) was 1.009 and the “Growth, mean colony biomass (n=4)” value ([2]; gRNA pssA) was 0.9581. The “Growth, mean colony biomass (n=4)” value ([2]; gRNA ptsI) was 1.038, the “Growth, mean colony biomass (n=4)” value ([2]; gRNA ribD) was 1.045 and the “Growth, mean colony biomass (n=4)” value ([2]; gRNA rne) was 1.0315. For the same molecule, the “Growth, mean colony biomass (n=4)” value ([2]; gRNA rplA) was 0.9936, the “Growth, mean colony biomass (n=4)” value ([2]; gRNA rplX) was 1.03 and the “Growth, mean colony biomass (n=4)” value ([2]; gRNA rpmC) was 1.003. For the same molecule, the “Growth, mean colony biomass (n=4)” value ([2]; gRNA rpoE) was 1.036, the “Growth, mean colony biomass (n=4)” value ([2]; gRNA rpsG) was 1.014 and the “Growth, mean colony biomass (n=4)” value ([2]; gRNA rpsK) was 0.9986. The “Growth, mean colony biomass (n=4)” value ([2]; gRNA rpsR) was 0.9771, the “Growth, mean colony biomass (n=4)” value ([2]; gRNA rpsT) was 1.039 and the “Growth, mean colony biomass (n=4)” value ([2]; gRNA suhB) was 0.9724. The “Growth, mean colony biomass (n=4)” value ([2]; gRNA tsaE) was 0.9903, the “Growth, mean colony biomass (n=4)” value ([2]; gRNA ygeN) was 0.9481 and the “Growth, mean colony biomass (n=4)” value ([2]; gRNA yqeL) was 1.455. The “Growth, mean colony biomass (n=4)” value ([2]; gRNA zipA) was 1.731 and the “growth defect of the lgt CRISPRi mutant in the presence of compound” value ([2]; sub-inhibitory (¼ MIC) concentration, LB agar, basal knockdown) was “did not demonstrate a growth defect”.
